Experimental data from US11700805B2, “Regeneration of plants in the presence of histone deacetylase inhibitors” (KWS SAAT SE & CO. KGaA, priority 2017, dated 2023).
Entries after “also recorded” stand apart in the source; their conditions may differ. Where two headings read alike, the source gives them in different places.

How the values were obtained:
[1] = tested on: Arabidopsis hypocotyl explants; conditions: alone or in combination of kinetin and TSA; cited from earlier work
[2] = tested on: Arabidopsis leaf explants; conditions: treatment with TSA; cited from earlier work
[3] = tested on: cells derived from male gametophytes of diverse plant species; conditions: TSA added to the culture medium; cited from earlier work
[4] = tested on: friable calli from sugar beet leaf explants; assay: Shoot regeneration from friable calli induced in the presence of TSA; assay type: cell-based, Beta vulgaris
Protocol: 2. Technical Description of the Shoot Regeneration Protocol 1. The friable calli of step 4 were harvested in medium containing MS salts, 30 g/l sucrose, 1 mg/l GA3 and 1 mg/l TDZ, and transferred to separate dishes. 2. The dishes were incubated under the light (16 h) at 24° C. for 10 days. 3. Developing shoots were counted under a stereomicroscope, in order to estimate the regeneration capacity (number of shoots per initial leaf explant).

[5] = tested on: leaf explants of sugar beet (Beta vulgaris); assay type: cell-based
Protocol: 1. Technical Description of the Sugar Beet Callus Induction Protocol
This method is based on the publication by Kischenko et al., 2005 Cell Biology International.
1. Micropropagated shoots of the genotype S706 were used as starting material. Shoots were multiplied in MS salts supplemented with 30 g/l sucrose and 0.25 mg/l benzyladenine (BAP).
2. To induce friable callus, leaf explants were isolated from micropropagated shoots and incubated in medium containing MS salts including 15 g/l sucrose and 2 mg/l BAP as a control and in the same medium supplemented with 0.01 μM TSA (B1), 0.1 μM TSA (B2), 0.5 μM TSA (B3), 1.0 μM TSA (B4), and 5.0 μM TSA (B5), at 28° C. in the dark for 7 weeks.
3. Development of callus from leaf explants was monitored during the incubation in the callus induction medium at 4, 5, 6 and 7 weeks.
4. Leaf explants producing friable calli were scored in order to calculate the callus induction frequency (percentage of leaf explants that produced friable calli).

| SMILES | induction of callus growth [1] | callus formation [2] | proportion of cells undergoing embryogenic growth [3] | average number of shoots per explant ([4]; genotype 1, callus induced with 0.01 μM TSA, control 4.7) | average number of shoots per explant ([4]; genotype 2, callus induced with 0.01 μM TSA, control 2.4) | regeneration of shoots from produced calli ([4]; genotype 3 (high level of recalcitrance), callus induced with 0.01 μM TSA) | number of regenerated shoots per explant ([4]; genotype S706, FIGS. 3C and 4C, vs control) | number of leaf explants with developing calli ([5]; after 28 days, without TSA not reached even after 49 days) | genotype-dependent recalcitrance to callus formation ([5]; first initial tests, TSA added) | average callus induction frequency ([5]; genotype 1, 0.01 μM TSA, control without TSA 66.3%) | callus induction frequency ([5]; genotype 2, 0.01 μM TSA vs control) | callus induction frequency ([5]; genotype 3 (high level of recalcitrance), 0.01 μM TSA) | speed of callus formation ([5]; genotype S706, FIG. 5, vs medium without TSA) | callus amount per leaf explant ([5]; genotype S706, FIGS. 3B and 4B, vs medium without TSA) | callus induction frequency (percentage of leaf explants that produced friable calli) ([5]; genotype S706, TSA 0.01 μM to 1.0 μM in callus induction medium, vs medium without TSA) |
| --- | --- | --- | --- | --- | --- | --- | --- | --- | --- | --- | --- | --- | --- | --- | --- |
| c1coc(CNc2ncnc3[nH]cnc23)c1 [Kinetin] | did not induce callus growth | – | – | – | – | – | – | – | – | – | – | – | – | – | – |
| CC(/C=C/C(=O)NO)=C\[C@@H](C)C(=O)c1ccc(N(C)C)cc1 [TSA, trichostatin A] | did not induce callus growth | defective callus formation | large increase | 7.7 | 4.6 | able to regenerate shoots only when the calli were produced in medium containing TSA; also recorded: only possible if the callus has been induced in the presence of TSA | increased | high number | could be reduced | 82% | no significant increase | very low | accelerates | increases | increased |
